This note sets out measurements from patent US4734409A, “Cephalosporin derivative, process for producing the same and pharmaceutical composition containing the same” (Kureha Kagaku Kogyo Kabushiki Kaisha, priority 1984, dated 1988).

Data set [1] deals with Escherichia coli IFO 12734. Briefly: Therapeutic effect on the experimental infectious disease on mice. It counts as in vivo, Escherichia coli (infected ddY-SPF mice). The source says: Therapeutic effect of the present compounds on the infection was examined as follows.
The test system of data set [2] is bacteria (strains of Table 3). The experiment in a line: Antibacterial activity, agar plate dilution method, overall. Format: cell-based. Particulars: as seen from Table 3. On the procedure: Antibacterial activity of the present compound was examined by agar plate dilution method while following the standard method of Japan Society of Chemotherapy and using the following strain:
2. Staphylococcus aureus IAM 1011
3. Escherichia coli W 3636
4. Proteus vulgaris IAM 1025
5. Pseudomonas aeruginosa IAM 1514
6. Serratia marcescens IAM 1223
Namely, after inoculating each bacteria on Mueller-Hinton culture medium, the inoculum was incubated for 18 to 48 hours at 37° C. and after adjusting the number of cells of each bacteria so as to contain 10^6 in one ml, the thus prepared specimen was used as the test bacterial liquid.
Each of the present substances (the substance in Example 1 and the substance in Example 2) was dispersed in aqueous physiological saline solution at a predetermined concentration and the thus prepared dispersion was added to 9 times by volume of the culture medium for examining sensitivity (Mueller-Hinton culture medium) to prepare agar plates.
On each agar plate, each of the test bacterial liquid was smeared at a width of about 2 cm, and the thus smeared agar plate was incubated for 18 to 24 hours at 37° C.

Data set [3] has as its system Escherichia coli IFO 12734. The experiment in a line: Antibacterial activity, agar plate dilution method: E. coli IFO 12734. It counts as cell-based. The note with it: Mueller-Hinton agar, 10^6 cells/ml, 37° C., 18 to 24 hours. The protocol:
(§1) Antibacterial activity of the present compound was examined by agar plate dilution method while following the standard method of Japan Society of Chemotherapy and using the following strain: 1. Escherichia coli IFO 12734 Namely, after inoculating each bacteria on Mueller-Hinton culture medium, the inoculum was incubated for 18 to 48 hours at 37° C. and after adjusting the number of cells of each bacteria so as to contain 10^6 in one ml, the thus prepared specimen was used as the test bacterial liquid. Each of the present substances (the substance in Example 1 and the substance in Example 2) was dispersed in aqueous physiological saline solution at a predetermined concentration and the thus prepared dispersion was added to 9 times by volume of the culture medium for examining sensitivity (Mueller-Hinton culture medium) to prepare agar plates. On each agar plate, each of the test bacterial liquid was smeared at a width of about 2 cm, and the thus smeared agar plate was incubated for 18 to 24 hours at 37° C.

Data set [4] deals with Staphylcoccus aureus IAM 1011. The experiment in a line: Activation by rat liver homogenate (S-9 mix), penicillin cup proliferation-inhibiting circle. Format: cell-based, Staphylococcus aureus. Particulars: 20 min at 37° C., inhibiting circle diameter as % of that of the starting compound; for Degree of activation, Before adding S-9 mix: phosphoric acid buffer control; for Degree of activation, After adding S-9 mix: rat liver S-9 mix. On the procedure:
As an enzyme for activating metabolism of the present compound, rat liver homogenate (S-9, manufactured by Oriental Yeast Co., Ltd.) was used in preparing the following mixture (hereinafter referred to as S-9 mix).
Composition of S-9 mix (amount in one ml of S-9 mix)
A test solution of present compound was prepared by mixing 0.1 ml of a dispersion of the present compound and 0.9 ml of the thus prepared S-9 mix and shaking the thus prepared mixture for 20 min at 37° C. As a control, a mixture was prepared by mixing 0.1 ml of the dispersion of the present compound and 0.9 ml of the 0.2M phosphoric acid buffer and shaking the mixture for 20 min at 37° C.
As the test bacteria, Staphylcoccus aureus IAM 1011 was inoculated in Mueller-Hinton culture medium and after incubating the inoculum for 18 hours at 37° C., the number of the bacteria was adjusted to 10^8 /ml and the bacterial preparation was mixed with 50 times by volume of Mueller-Hinton culture medium, and an agar plate was prepared from the mixture.
After placing a penicillin cup of 8 mm in diameter on the thus prepared agar plate, 0.1 ml of the test solution of present compound prepared above was put into the cup, and after leaving the agar plate for 2 hours at 4° C., the agar plate was subjected to culture for 18 hours at 37° C. and the diameter of a proliferation-inhibiting circle appearing on the agar plate was measured.
The same procedures were carried out except for using 7β-[2-(2-amino-4-thiazolyl)-(Z)-2-methoxyiminoacetamido]-3-[(2-methyl-1,3,4-thiadiazol-5-yl)thiomethyl]-3-cephem-4-carboxylic acid used as a starting compound for producing the present compound in Example 1 instead of the present compound.
The percentage of the diameter of a proliferation-inhibiting circle due to the present compound to that due to the starting compound mentioned above was obtained, and from the following standards, the degree of activation was obtained.

For data set [5], the system named is Staphylococcus aureus IAM 1011. The experiment in a line: Antibacterial activity, agar plate dilution method: S. aureus IAM 1011. It counts as cell-based. The note with it: Mueller-Hinton agar, 10^6 cells/ml, 37° C., 18 to 24 hours. The protocol: as §1, with “2. Staphylococcus aureus IAM 1011” for “1. Escherichia coli IFO 12734”
A further data set can be described thus: in vitro. It counts as in vitro ADME, Staphylococcus aureus. The note with it: rat, s9. On the procedure:
As a model experiment for verifying the stability of the present compound in Example 1 in the living body, the following procedures were adopted. The same test solution of the present compound as in Example 6 was prepared by mixing 0.1 ml of the dispersion of the present compound and 0.9 ml of S-9 mix, and shaking the mixture for 20 min at 37° C. As a control, a mixture of 0.1 ml of the dispersion of the present compound and 0.9 ml of the 0.2M phosphoric acid buffer was shaken for 20 min at 37° C. As the test bacteria, Staphylococcus aureus IAM 1011 was inoculated in Mueller-Hinton culture medium, and after incubating the inoculum for 18 hours at 37° C., the number of bacteria in the medium was adjusted to 10^8 /ml and the thus adjusted, cultured medium was mixed with 50 times by volume of Mueller-Hinton culture medium. After preparing an agar plate from the mixture, a penicillin cup of 8 mm in diameter was placed on the agar plate, and 0.1 ml of the test solution prepared above was put into the cup. After leaving the thus prepared agar plate for 2 hours at 4° C., the agar plate was subjected to culture for 18 hours at 37° C. to measure the diameter of a proliferation-inhibiting circle appearing on the agar plate. From a calibration curve preliminarily prepared between the concentration of the present compound and the diameter of the proliferation-inhibiting circle, the concentration of the present compound in the test solution and the control was obtained. By using the thus obtained concentration, the rate of retaining the antibacterial activity (Rate (%)) was calculated from the following formula and is shown in Table 5. [formula] As a comparative experiment, the same precedures were carried out except for using Cefotax (a commercialized cephalosporin derivative sold by CHUGAI Pharmaceuticla Co., Ltd., which is represented by the following formula), [drawing 21] instead of the present compound produced in Example 1.

For `CO/N=C(\C(=O)N[C@@H]1C(=O)N2C(C(=O)OCOC(=O)C(C)(C)C)=C(CSc3nnc(C)s3)CS[C@H]12)c1csc(NC(=O)C(Cl)Cl)n1` [Example 2], the “survival 7 days after inoculation” value in data set [1] (25 mg/kg orally, 1 time, 1 hour after intraperitoneal inoculation of 1.4×10^3 cells, all untreated mice died on the second day) is on record as “all the mice administered with the present compound survived”. For the same molecule, the “antibacterial activity (in words)” value in data set [2] is on record as “shows a low antibacterial activity”. The “minimal inhibitory concentration (MIC), E. coli IFO 12734” value in data set [3] turned out to be 50. In data set [4], the “Degree of activation, Before adding S-9 mix” value was “± (0 to 1%)” and the “Degree of activation, After adding S-9 mix” value is reported as “++++ (100 to 150%)”. The “minimal inhibitory concentration (MIC), S. aureus IAM 1011” value in data set [5] is given as not below 100.

On to `CO/N=C(\C(=O)N[C@@H]1C(=O)N2C(C(=O)O)=C(CSc3nnc(C)s3)CS[C@H]12)c1csc(NC(=O)C(Cl)Cl)n1` [Example 1, 7β-[2-(2-dichloroacetamido-4-thiazolyl)-(Z)-2-methoxyiminoacetamido]-3-[(2-methyl-1,3,4-thiadiazol-5-yl)thiomethyl]-3-cephem-4-carboxylic acid], for which the “survival 7 days after inoculation” value in data set [1] (intravenous administration, dose not given) is on record as “All the ddY-SPF mice administered with the present compound produced in Example 1 via intravenation survived”. The molecule also came in with an amount remaining at 20 min in the data set “in vitro” of 90%. In addition, the “antibacterial activity (in words)” value in data set [2] is recorded as “shows an antibacterial activity”. Moreover, the “minimal inhibitory concentration (MIC), E. coli IFO 12734” value in data set [3] is listed as 0.1. Moreover, in data set [4], the “Degree of activation, Before adding S-9 mix” value was “++++ (100 to 150%)” and the “Degree of activation, After adding S-9 mix” value is “++++ (100 to 150%)”. The “minimal inhibitory concentration (MIC), S. aureus IAM 1011” value in data set [5] was found to be 0.78.

One may read the amount remaining as the share of the starting amount still present when the sample was taken. Lower therefore signals a greater loss.
